This is an account of results in PubChem BioAssay (NCI).

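In this assay, cells in 96-well plates receive the compound at five concentrations for 48 hours. Endpoints are linearly interpolated between the surrounding concentrations. The concentration for full growth arrest is given as TGI.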 Some results are limits rather than exact numbers.

Among the test systems are LXFL 529 NSCLC; DLD-1 colon; DMS 114 small cell lung; KM20L2 colon; HOP-18 NSCLC; M19-MEL melanoma; XF 498 CNS; RXF-631 renal.
Assay in all cases: NCI-60 cell line screen, 48 h

Consider `O=c1[nH]c(=O)n(C2CC(O)C(CO)O2)cc1C#Cc1ccc(F)cc1` (centres undefined), for which the TGI in the assay with LXFL 529 NSCLC, in the assay on DLD-1 colon, in the assay on DMS 114 small cell lung, with KM20L2 colon, in the assay with HOP-18 NSCLC and in the assay on M19-MEL melanoma was over 100 µM each time. The TGI in the assay with XF 498 CNS is over 100 µM.
In the case of `COc1ccc2[nH]c3c(C)cc([N+](=O)[O-])c(C)c3c2c1`, the TGI is over 100 µM with LXFL 529 NSCLC; 72.7 µM in the assay with DLD-1 colon; 58.3 µM in the assay with DMS 114 small cell lung; over 100 µM in the assay on KM20L2 colon; over 100 µM in the assay with HOP-18 NSCLC; 45.1 µM with M19-MEL melanoma. In the assay with XF 498 CNS, this compound came in with a TGI of over 100 µM.
Turning to `OC12c3ccccc3C3CCC4(OCCO4)C3C1c1ccccc12` (centres undefined), the TGI with LXFL 529 NSCLC, with DLD-1 colon, with DMS 114 small cell lung, with KM20L2 colon, in the assay with HOP-18 NSCLC and with M19-MEL melanoma was over 100 µM throughout.
For the compound `CC(CN(C)C)C(=O)c1ccccc1` (centres undefined), the TGI was 39.8 µM with LXFL 529 NSCLC; 32.6 µM in the assay on DLD-1 colon; over 57.8 µM with DMS 114 small cell lung; over 87.5 µM in the assay with KM20L2 colon; over 100 µM in the assay with HOP-18 NSCLC; over 100 µM in the assay on RXF-631 renal. Besides, the results for the TGI with M19-MEL melanoma and in the assay with XF 498 CNS were 35.4 µM and 45 µM, respectively.
Take `COc1ccc(C(=O)N/N=C/c2c(C)n(C)n(-c3ccccc3)c2=O)cc1`: the TGI in the assay with LXFL 529 NSCLC, in the assay with DLD-1 colon, in the assay on DMS 114 small cell lung, in the assay with KM20L2 colon, in the assay with HOP-18 NSCLC and in the assay with M19-MEL melanoma was over 100 µM throughout. In addition, the TGI in the assay on XF 498 CNS was over 100 µM.
Take `O=C(OC/C=C1C=C(OC(=O)c2ccccc2)/C(=N/N(C(=O)c2ccccc2)c2ccccc2)O\1)c1ccccc1`: the TGI in the assay on LXFL 529 NSCLC is 4.4 µM; in the assay with DLD-1 colon it was 10.6 µM; in the assay on DMS 114 small cell lung, 28.3 µM; in the assay with M19-MEL melanoma it was 18.8 µM; with XF 498 CNS, 33.7 µM.
`CCCN(CCC)c1c([N+](=O)[O-])cc(C(=O)N(CCO)CCO)cc1[N+](=O)[O-]`: the TGI with LXFL 529 NSCLC, in the assay with DLD-1 colon, in the assay on HOP-18 NSCLC, with M19-MEL melanoma and in the assay on XF 498 CNS was over 100 µM each time.
`CCOC(=O)C1([Se]c2ccccc2)CCCC1=O` (centres undefined): the TGI was 34.2 µM in the assay with LXFL 529 NSCLC; 32.9 µM in the assay on DLD-1 colon; 15.3 µM in the assay on DMS 114 small cell lung; over 100 µM in the assay with KM20L2 colon; 59.7 µM in the assay on HOP-18 NSCLC; over 100 µM with RXF-631 renal. For the same compound, the TGI is 51.1 µM with M19-MEL melanoma and 36.9 µM in the assay with XF 498 CNS.
As to `COc1ccc2c(c1)c(=O)c1c(NCCN(C)C)ccc3nnn2c31`, the TGI in the assay on LXFL 529 NSCLC came to 18 µM; in the assay on DLD-1 colon it was 20 µM; in the assay on DMS 114 small cell lung, 19.4 µM; with KM20L2 colon, 14.7 µM; in the assay with HOP-18 NSCLC, 7.35 µM; in the assay with RXF-631 renal, 14 µM. Besides, the TGI in the assay with M19-MEL melanoma worked out at 20.8 µM.
Consider `CC(=O)N(O)Cc1ccccc1`, for which the TGI in the assay on LXFL 529 NSCLC, in the assay with DLD-1 colon, in the assay on DMS 114 small cell lung, in the assay on KM20L2 colon, in the assay on RXF-631 renal and in the assay with M19-MEL melanoma was over 100 µM throughout. Besides, the TGI with XF 498 CNS is over 100 µM.
Take `C#CC1(O)CCC2[C@@H]3CCc4cc(Oc5nc(F)nc(-c6c7ccccc7cn6C)n5)ccc4C3CC[C@@]21C` (some centres undefined): the TGI in the assay with LXFL 529 NSCLC was over 100 µM; in the assay on DLD-1 colon, over 73.5 µM; in the assay on DMS 114 small cell lung, over 53.2 µM; in the assay with KM20L2 colon it was over 100 µM; in the assay on HOP-18 NSCLC it was over 100 µM; in the assay on M19-MEL melanoma it was over 100 µM. Moreover, the TGI in the assay with XF 498 CNS is over 100 µM.
